Reference: the OPERA property sets (Mansouri et al. 2018)

Structure (SMILES)	logP
Cc1cc(C)c(NC2=NCCN2)c(Cl)c1	2.1
CCC1C(=O)NC(=O)N(C)C1=O (centres undefined)	0.15
CSC(C)=NOC(=O)N(C)SN(C)C(=O)N(C)C	1.2
COc1ccccc1OC1OC(CO)C(O)C(O)C1O (centres undefined)	-1.04
Oc1nc2ccccc2nc1O	0.2
COc1nnc(C(C)C)c(=O)n1N	-0.06
CCCCCCc1nnc(SC)n(N)c1=O	2.68
Nc1cccc2nccnc12	1.29
Cn1c(C(O)CO)cnc1[N+](=O)[O-] (centres undefined)	-0.89
CON(C)C(=O)Nc1cccc(C(C)(C)C)c1	3.21
CNC(=O)Oc1ccc(S(C)(=O)=O)cc1	0.34
CN(C)c1ccc(Cc2cnc(N)nc2N)cc1	1.82
CCCOn1c(=O)cc(C)[nH]c1=O	0.3
O=C1CCC(=O)N1c1cccc(Cl)c1	0.98
CCc1ccc(O[Si]23OCCN(CCO2)CCO3)cc1	0.56
CSc1ccc2c(c1)C(c1ccccc1)=NCC(=O)N2C	2.95
COc1ccc(C=C[N+](=O)[O-])cc1	2.2
CC(=O)Oc1ccc(C=CNC=O)cc1	1.32
Nc1nc(N)nc(-c2cc(Cl)ccc2Cl)n1	1.97
COC(=O)C(C#N)=NNc1ccccc1C(F)(F)F	3.7
CC(=O)C(C#N)=NNc1ccc(SC(F)(F)F)cc1	5.04
CSc1ccccc1C1=NCC(=O)Nc2ccc(Cl)cc21	2.99
CN(C)C(=O)Nc1cccc(OCCc2ccccc2)c1	3.39
Cc1c(N(C)C)cc(Cc2cnc(N)nc2N)cc1N(C)C	2.06
Clc1ccccc1-c1ccc(Cl)c(Cl)c1Cl	6.11

Structure (SMILES)	logP
CCCCCCCCCCOC(=O)N(C)SN(C)C(=O)ON=C(C)SC	6.2
CC(=O)Nc1cc2c(cc1Cl)S(=O)(=O)NC(C)=N2	0.53
O=C1CCCN1Cc1ccccc1	1.25
CN(Cc1ccccc1)N=Nc1ccc(C(N)=O)cc1	2.76
CC1(C)SC2C(NC(=O)C(NS(C)(=O)=O)c3ccccc3)C(=O)N2C1C(=O)O (centres undefined)	0.95
Cc1ccc(NC(=O)CN2CCCCC2)cc1	2.96
CCCOc1cccc(O)c1	2.59
Cc1ccccc1N1C(=O)CCC1=O	0.29
CC(C)(C)c1nnc(N)o1	0.48
CNC(=O)C1CCCN1C(C)=O (centres undefined)	-1.19
Nc1nc(N)nc(-c2cc(Cl)ccc2Br)n1	1.85
N#CSc1ccccc1	2.54
CCc1nnc(SC)n(N)c1=O	0.46
COP(=O)(NC(C)(C)C)Oc1cc(Cl)c(Cl)cc1Cl (centres undefined)	3.83
CN(C(=O)COc1ccccc1)c1ccccc1	2.25
CCC(C)On1c(=O)[nH]c(C)c(Br)c1=O (centres undefined)	1.11
Cn1c(=O)nc(-c2ccccc2)c2ccccc21	1.79
O=C(c1ccncc1)c1ccc([N+](=O)[O-])cc1	1.76
CCC(=O)c1ccc(OC(=O)NC)cc1	1.55
CNC(=O)Oc1cccc(C(=O)OC)c1	1.42
O=C(NC(CO)C(O)c1cccc([N+](=O)[O-])c1)C(Cl)Cl (centres undefined)	1.15
CNC(=O)Oc1cc(C)cc(C(C)(C)C)c1	3.35
Cn1c(=O)c(=O)n(C)c2ccccc21	0.08
CC(O)Cn1ccnc1[N+](=O)[O-] (centres undefined)	-0.16
